# Results taken from patent publication US7264956B2, “Compounds and methods for inhibiting axillary malodour” (Givaudan SA, priority 2001, dated 2007).
# Where a SMILES comes first, the peptide text is derived from it.
# Molecular target: T1, isolated enzyme (extracts of A×20) (Corynebacterium striatum, UniProt Q8GGD4)
# T1 construct: an enzyme may be isolated from cellular extracts obtained from wild-type bacterial strains; endogenous in cells; host or cells: Corynebacterium striatum Ax20 (DSM 14267), mechanically disrupted; crude extract or chromatographically purified enzyme
# Test: Low throughput screening for inhibitors, isolated enzyme (released lauric acid by GC)
# Assay type: biochemical
# Conditions: 0.5 mM; substrate Nα-lauroyl-L-glutamine, 2 h
# Procedure: (§1) Extracts of A×20 were prepared by mechanical disruption as described in Example 3. The extract (0.5 ml corresponding to 2 ml initial cell culture) was added to 3.5 ml of Buffer A and amended with 40 μl of substrate (Nα-lauroyl-L-glutamine, 5% stock solution in methanol). Parallel samples were additionally amended with potential inhibitory compounds to give a final concentration of 0.5 and 5 mM. The samples were incubated for 2 h and then extracted with MTBE and HCI and analysed for released lauric acid using capillary GC. By comparing the samples containing potential inhibitory compounds with control samples with enzyme and substrate only, the inhibition (%) was calculated. The same assay was also made either with purified enzyme from the wild-type strain (see example 3) or with extracts from E.coli Top 10/pBADgIII AMRE induced with arabinose (see example 6). Furthermore, the same assay was made using stationary phase living cells of A×20 instead of an isolated enzyme preparation. In this case successful uptake of the inhibitors into the cells and inhibition are measured simultaneously.
# T1 sequence (Q8GGD4 2-400): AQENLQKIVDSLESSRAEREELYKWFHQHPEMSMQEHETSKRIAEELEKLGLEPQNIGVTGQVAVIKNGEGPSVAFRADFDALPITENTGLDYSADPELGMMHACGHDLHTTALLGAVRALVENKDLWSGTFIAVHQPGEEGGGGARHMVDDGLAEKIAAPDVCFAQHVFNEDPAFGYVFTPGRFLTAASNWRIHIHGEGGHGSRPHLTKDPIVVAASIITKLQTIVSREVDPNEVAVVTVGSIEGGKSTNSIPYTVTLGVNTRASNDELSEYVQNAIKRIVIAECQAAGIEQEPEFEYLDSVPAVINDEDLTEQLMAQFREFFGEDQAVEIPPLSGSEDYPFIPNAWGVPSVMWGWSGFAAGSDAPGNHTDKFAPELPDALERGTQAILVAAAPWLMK
row,Compound,inhibition at 500 µM [%]
1,"OC(CS)C(O)CS (stereo not drawn) [Dithiothreitol, 2,3-dihydroxy-butane-1,4-dithiol]",98

# Same assay, conditions: 5 mM; substrate Nα-lauroyl-L-glutamine, 2 h
Compound,inhibition at 5000 µM [%],% inhibition of the isolated enzyme [%]
"c1ccc(-c2ccccn2)nc1 [2,2′-bipyridyl]",65,
O=P(O)(O)CN(CP(=O)(O)O)CP(=O)(O)O [Aminotri(methylene-phosphonic acid)],,76.6
"OC(CS)C(O)CS (stereo not drawn) [Dithiothreitol, 2,3-dihydroxy-butane-1,4-dithiol]",100,
CCC(NCCNC(CC)C(=O)O)C(=O)O (stereo not drawn) [Ethylen-diimino-dibutyric acid],,44.3
O=C(O)CNCCNCC(=O)O [Ethylendiamine-2-2′-diacetic acid],,100
"c1ccc(CN(CCN(Cc2ccccn2)Cc2ccccn2)Cc2ccccn2)nc1 [N,N,N′,N′-tetrakis-(2-pyridylmethyl)-ethylendiamine]",87.9,
"O=C(O)c1cccc(C(=O)O)n1 [Pyridine-2,6dicarboxylic acid]",100,

# Molecular target: T2, enzyme extracted from Corynebacterium striatum A×20 (AMRE, Nα-acyl-glutamine-aminoacylase) (Corynebacterium striatum, UniProt Q8GGD4)
# T2 construct: an enzyme may be isolated from cellular extracts obtained from wild-type bacterial strains; endogenous in cells; host or cells: Corynebacterium striatum Ax20 (DSM 14267), mechanically disrupted; crude extract or chromatographically purified enzyme
# Test: Substrate specificity of the enzyme (capillary GC of released acid or alcohol)
# Assay type: biochemical
# Conditions: not given
# Procedure: To understand in detail the structural requirements of substrates, the enzyme extracted from Corynebacterium striatum A×20 was incubated with a wide variety of said compounds related to the originally isolated Nα-3-methyl-3-hydroxy-hexanoyl-L-glutamine present in sweat. Each compound was used at a concentration of 500 ppm in Buffer A, and analysis of released acid or alcohol was done by capillary GC after 24 h of incubation. First, different modifications at the N-terminus were tested.
# T2 sequence (Q8GGD4 2-400): as above
row,Compound,cleavage of substrate by enzyme (in words)
1,CCCC(C)=CC(=O)N[C@@H](CCC(N)=O)C(=O)O [Nα(3-methyl-2-hexenoyl)-L-glutamine],able to be cleaved
2,NC(=O)CC[C@H](NC(=O)OCCc1ccccc1)C(=O)O [Nα-2-Phenylethyloxycarbonyl-L-glutamine],able to be cleaved
3,"CC(C)=CCCC(C)CCOC(=O)N[C@@H](CCC(N)=O)C(=O)O (stereo partly drawn) [Nα-3,7-Dimethyl-6-octenyloxycarbonyl-L-glutamine]",able to be cleaved
4,NC(=O)CC[C@H](NC(=O)OCCC12CC3CC(CC(C3)C1)C2)C(=O)O [Nα-(2-Adamantan-1-yl-ethoxycarbonyl)-L-glutamine],able to be cleaved
5,NC(=O)CC[C@H](NC(=O)OCC12CC3CC(CC(C3)C1)C2)C(=O)O [Nα-(2-Adamantan-1-yl-methoxycarbonyl)-L-glutamine],able to be cleaved
6,CC(CCOC(=O)N[C@@H](CCC(N)=O)C(=O)O)CCc1ccccc1 (stereo partly drawn) [Nα-(3-Methyl-5-phenylpentanoxycarbonyl)-L-glutamine],able to be cleaved
7,CCC=CCCOC(=O)N[C@@H](CCC(N)=O)C(=O)O [Nα-(3-hexenyl)oxycarbonyl-L-glutamine],able to be cleaved
8,CCCC(C)(O)CC(=O)N[C@@H](CCC(N)=O)C(=O)O (stereo partly drawn) [Nα-(3-hydroxy-3-methyl-hexanoyl)-L-glutamine],able to be cleaved
9,COc1ccc(SC(=O)N[C@@H](CCC(N)=O)C(=O)O)cc1 [Nα-(4-methoxy-phenylsulfanylcarbonyl)-L-glutamine],able to be cleaved
10,CC(C)(C)C1CCC(OC(=O)N[C@@H](CCC(N)=O)C(=O)O)CC1 (stereo partly drawn) [Nα-(4-tert-Butylcyclohexyloxycarbonyl)-L-glutamine],able to be cleaved
11,C=CCCCCCCCCC(=O)N[C@@H](CCC(N)=O)C(=O)O [Nα-(11-undecenoyl)-L-glutamine],able to be cleaved
12,CCCCOC(=O)N[C@@H](CCC(N)=O)C(=O)O [Nα-Butyloxycarbonyl-L-glutamine],able to be cleaved
13,"CC1=CCC(CCOC(=O)N[C@@H](CCC(N)=O)C(=O)O)C1(C)C (stereo partly drawn) [Nα-[2-(2,2,3-trimethyl-cyclopent-3-enyl)-ethoxycarbonyl)-L-glutamine]",able to be cleaved
14,CCCCCCCCCC(=O)N[C@@H](CCC(N)=O)C(=O)O [Nα-decanoyl-L-glutamine],able to be cleaved
15,CCCCCCCCCCCCCC(=O)N[C@@H](CCC(N)=O)C(=O)O [Nα-tetradecanoyl-L-glutamine],able to be cleaved
16,"CC(C)=CCCC(C)CCOC(=O)N[C@@H](CCC(N)=O)C(=O)O (stereo partly drawn) [compound 5, Nα-3,7-Dimethyl-6-octenyloxycarbonyl-L-glutamine]",can cleave
17,"NC(=O)CC[C@@H](NC(=O)OCc1ccccc1)C(=O)O [compound 19, Carbobenzyloxy-D-glutamine]",cannot cleave
18,"COC(=O)[C@H](CCC(N)=O)NC(=O)OCc1ccccc1 [compound 20, Carbobenzyloxy-L-glutamine-O-Me]",does not cleave
19,"NC(=O)CC[C@H](NC(=O)OCc1ccccc1)C(=O)NCC(=O)O [compound 21, Carbobenzyloxy-L-glutamine- Gly-OH] (HELM PEPTIDE1{[O=C(OCc1ccccc1)[*:2]].Q.G}$$$$V2.0)",does not cleave
20,"O=C(CC[C@H](NOCc1ccccc1)C(=O)O)NCc1ccccc1 [compound 22, 4-benzylcarbamoyl-2-(S)-benzyloxyamino-butyric acid]",cannot cleave

# Same assay, conditions: 500 ppm in Buffer A, 24 h incubation
row,Compound,Cleavage by enzyme
1,"CCCCCCCCCC(=O)N[C@@H](CCC(N)=O)C(=O)O [compound 3, Nα-decanoyl-L-glutamine]",+++ (+++ cleavage over 50%)
2,"NC(=O)CC[C@H](NC(=O)OCc1ccccc1)C(=O)O [compound 4, Carbobenzyloxy-L-glutamine]",++ (++ cleavage 10–50%)
3,"CC(C)=CCCC(C)CCOC(=O)N[C@@H](CCC(N)=O)C(=O)O (stereo partly drawn) [compound 5, Nα-3,7-Dimethyl-6-octenyloxycarbonyl-L-glutamine]",+++ (+++ cleavage over 50%)
4,"CCCCCCCCCCCC(=O)N[C@@H](CC(=O)O)C(=O)O [compound 6, N-Lauroyl-L-aspartate]",−
5,"CCCCCCCCCCCC(=O)N[C@@H](CCCCN)C(=O)O [compound 7, Nα-Lauroyl-L-lysine]",−
6,"CCCCCCCCCCCC(=O)N[C@@H](CCCNC(=N)N)C(=O)O [compound 8, Nα-Lauroyl-L-arginine]",−
7,"CCCCCCCCCCCC(=O)N[C@@H](C)C(=O)O [compound 9, N-lauroyl-L-alanine]",+ (+ indicates cleavage < 10%)
8,"C[C@H](NC(=O)OCc1ccccc1)C(=O)O [compound 10, Carbobenzyloxy-L-alanine]",+ (+ indicates cleavage < 10%)
9,"O=C(O)CC[C@H](NC(=O)OCc1ccccc1)C(=O)O [compound 11, Carbobenzyloxy-L-glutamate]",−
10,"O=C(O)C[C@H](NC(=O)OCc1ccccc1)C(=O)O [compound 13, Carbobenzyloxy-L-aspartate]",−
11,"O=C(N[C@@H](CO)C(=O)O)OCc1ccccc1 [compound 14, Carbobenzyloxy-L-serine]",−
12,"O=C(N[C@@H](Cc1ccc(O)cc1)C(=O)O)OCc1ccccc1 [compound 15, Carbobenzyloxy-L-tyrosine]",−
13,"O=C(O)CNC(=O)OCc1ccccc1 [compound 16, Carbobenzyloxy-L-glycine]",−
14,"O=C(N[C@@H](Cc1c[nH]cn1)C(=O)O)OCc1ccccc1 [compound 17, Carbobenzyloxy-L-histidine]",−
15,"CC(C)C[C@H](NC(=O)OCc1ccccc1)C(=O)O [compound 18, Carbobenzyloxy-L-leucine]",−
16,"NC(=O)CC[C@@H](NC(=O)OCc1ccccc1)C(=O)O [compound 19, Carbobenzyloxy-D-glutamine]",−
17,"COC(=O)[C@H](CCC(N)=O)NC(=O)OCc1ccccc1 [compound 20, Carbobenzyloxy-L-glutamine-O-Me]",−
18,"NC(=O)CC[C@H](NC(=O)OCc1ccccc1)C(=O)NCC(=O)O [compound 21, Carbobenzyloxy-L-glutamine- Gly-OH] (HELM PEPTIDE1{[O=C(OCc1ccccc1)[*:2]].Q.G}$$$$V2.0)",−
19,"O=C(CC[C@H](NOCc1ccccc1)C(=O)O)NCc1ccccc1 [compound 22, 4-benzylcarbamoyl-2-(S)-benzyloxyamino-butyric acid]",−

# Same assay, conditions: listed as Nα-Carbobenzyloxy-L-glutamine
row,Compound,cleavage of substrate by enzyme (in words)
1,"NC(=O)CC[C@H](NC(=O)OCc1ccccc1)C(=O)O [compound 4, Carbobenzyloxy-L-glutamine]",able to be cleaved

# Same assay, conditions: listed as Nα-carbobenzyloxy-L-glutamine
row,Compound,cleavage of substrate by enzyme (in words)
1,"NC(=O)CC[C@H](NC(=O)OCc1ccccc1)C(=O)O [compound 4, Carbobenzyloxy-L-glutamine]",can cleave

# Molecular target: T3, enzyme activity in living cells of A×20 (Corynebacterium striatum, UniProt Q8GGD4)
# T3 construct: stationary phase living cells of A×20; endogenous in cells; host or cells: Corynebacterium striatum Ax20, stationary-phase living cells
# Test: Low throughput screening for inhibitors, stationary phase living cells of A×20
# Assay type: cell-based
# Conditions: 5 mM; substrate Nα-lauroyl-L-glutamine, 2 h
# Procedure: as §1
# T3 sequence (Q8GGD4 2-400): as above
Compound,% inhibition of enzyme activity in living cells [%],inhibition at 5000 µM [%]
O=P(O)(O)CN(CP(=O)(O)O)CP(=O)(O)O [Aminotri(methylene-phosphonic acid)],55.7,
CCC(NCCNC(CC)C(=O)O)C(=O)O (stereo not drawn) [Ethylen-diimino-dibutyric acid],53.7,
O=C(O)CNCCNCC(=O)O [Ethylendiamine-2-2′-diacetic acid],58.3,
"c1ccc(CN(CCN(Cc2ccccn2)Cc2ccccn2)Cc2ccccn2)nc1 [N,N,N′,N′-tetrakis-(2-pyridylmethyl)-ethylendiamine]",,85.2
"O=C(O)c1cccc(C(=O)O)n1 [Pyridine-2,6dicarboxylic acid]",,64.3
